ChEMBL document CHEMBL6109156, “Discovery of Dual PD-L1/HDAC3 Inhibitors for Tumor Immunotherapy” (J Med Chem, 2025)
Activity calls are given as the source filed them. The rule behind the calls is not given here.

How the values were obtained:
B16-F10 [1] = assay: Antitumor activity against mouse B16-F10 cells implanted in C57BL/6J mouse assessed as tumor growth inhibition at 40 mg/kg, ip administered once daily for 9 days; assay type: functional; settings: B16-F10, 216 h, time 9 day, read-out: TGI
Histone deacetylase 8 = target: T1, Histone deacetylase 8 (Homo sapiens, UniProt Q9BY41); assay: Inhibition of human recombinant HDAC8 using Ac-Leu-Gly-Lys (Tfa)-AMC as substrate preincubated for 10 mins followed by substrate addition and measured after 45 mins by TECAN microtiter plate reader analysis
T1 sequence (Q9BY41 whole entry): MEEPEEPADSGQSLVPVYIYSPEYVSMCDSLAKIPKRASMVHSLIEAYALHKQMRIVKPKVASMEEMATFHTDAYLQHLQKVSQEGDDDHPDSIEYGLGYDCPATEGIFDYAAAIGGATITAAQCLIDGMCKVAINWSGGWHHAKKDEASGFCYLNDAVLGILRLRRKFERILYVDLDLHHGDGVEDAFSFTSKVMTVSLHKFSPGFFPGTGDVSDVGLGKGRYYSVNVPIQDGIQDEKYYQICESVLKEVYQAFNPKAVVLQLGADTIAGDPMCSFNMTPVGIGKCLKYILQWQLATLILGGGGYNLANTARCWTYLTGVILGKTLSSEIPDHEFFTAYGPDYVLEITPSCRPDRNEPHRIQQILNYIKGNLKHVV

4T1 = assay: Antiproliferative activity against mouse 4T1 cells assessed as cell growth inhibition incubated for 48 hrs by MTT assay; assay type: functional, cell-based; settings: 4T1, 48 h
[2] = target: T2, Histone deacetylase 3 (Mus musculus) (UniProt O88895); assay: Inhibition of HDAC3 in mouse B16-F10 cells assessed as upregulation of Ac-H3 level at 3 uM incubated for 24 hrs by Western blotting analysis; assay type: cell-based
T2 sequence (whole entry): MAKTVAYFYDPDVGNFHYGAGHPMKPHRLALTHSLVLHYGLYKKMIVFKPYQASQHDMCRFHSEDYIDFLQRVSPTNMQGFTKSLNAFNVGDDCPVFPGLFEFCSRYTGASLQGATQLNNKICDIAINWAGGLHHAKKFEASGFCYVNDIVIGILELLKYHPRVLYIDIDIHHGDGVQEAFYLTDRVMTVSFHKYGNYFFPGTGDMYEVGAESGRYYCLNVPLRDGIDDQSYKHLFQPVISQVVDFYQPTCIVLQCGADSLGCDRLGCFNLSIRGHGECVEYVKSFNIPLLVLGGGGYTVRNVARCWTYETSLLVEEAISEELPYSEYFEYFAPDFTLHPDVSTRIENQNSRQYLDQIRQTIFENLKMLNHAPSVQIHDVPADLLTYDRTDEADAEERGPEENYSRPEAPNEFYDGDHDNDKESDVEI

[3] = target: T2, Histone deacetylase 3 (Mus musculus); assay: Inhibition of HDAC3 in mouse B16-F10 cells assessed as upregulation of Ac-H3 level incubated for 24 hrs by Western blotting analysis; assay type: cell-based; settings: dose 1-8 µM
B16-F10 [4] = assay: Induction of apoptosis in mouse B16-F10 cells assessed as viable cells at 10 uM incubated for 48 hrs by Annexin V-FITC/PI staining based flow cytometry analysis (reference value: 92.3%); assay type: functional; settings: read-out: Activity
B16-F10 [5] = assay: Induction of apoptosis in mouse B16-F10 cells assessed as early apoptotic cells at 1 uM incubated for 48 hrs by Annexin V-FITC/PI staining based flow cytometry analysis (reference value: 0.45 %); assay type: functional
B16-F10 [6] = assay: Induction of apoptosis in mouse B16-F10 cells assessed as early apoptotic cells at 2 uM incubated for 48 hrs by Annexin V-FITC/PI staining based flow cytometry analysis (reference value: 0.45 %); assay type: functional
B16-F10 [7] = assay: Induction of apoptosis in mouse B16-F10 cells assessed as early apoptotic cells at 10 uM incubated for 48 hrs by Annexin V-FITC/PI staining based flow cytometry analysis (reference value: 0.45 %); assay type: functional
B16-F10 [8] = assay: Induction of apoptosis in mouse B16-F10 cells assessed as late apoptotic cells at 4 uM incubated for 48 hrs by Annexin V-FITC/PI staining based flow cytometry analysis (reference value: 5.02 %); assay type: functional
B16-F10 [9] = assay: Induction of cell cycle arrest in mouse B16-F10 cells assessed as accumulation of cells at S phase at 1 uM incubated for 48 hrs by PI staining based flow cytometry analysis (reference value: 24.04%); assay type: functional
B16-F10 [10] = assay: Induction of cell cycle arrest in mouse B16-F10 cells assessed as accumulation of cells at G2/M phase at 4 uM incubated for 48 hrs by PI staining based flow cytometry analysis (reference value: 5.87%); assay type: functional
[11] = Toxicity in C57BL/6J mouse implanted with mouse B16-F10 cells assessed as kidney damage at 20 to 40 mg/kg, ip administered once daily for 9 days by H and E staining based analysis; assay type: organism-based; settings: in vivo, 216 h, dose 20-40 mg/kg, time 9 day

## CCCNNC(=O)CCCNCc1ccc(-c2cccc(-c3ccccc3)c2C)nc1OC
B16-F10 [1]
  inhibition in vivo at 40 mg/kg: 66.5%
Histone deacetylase 8
  IC50: > 10 µM
4T1
  IC50: 4.66 µM
[2]
  inhibition: Active
[3]
  inhibition: Dose-dependent-effect
B16-F10 [4]
  viability at 10 µM: 31.3%
B16-F10 [5]
  Activity: 3.34%
B16-F10 [6]
  Activity: 9.81%
B16-F10 [7]
  Activity: 52.9%
B16-F10 [8]
  Activity: 16.4%
B16-F10 [9]
  Activity: 21.79%
B16-F10 [10]
  Activity: 3.65%
[11]
  Activity: Non-toxic
